Assay results published in ChEMBL document CHEMBL5055643, “Sophoraflavanone G Resensitizes ABCG2-Overexpressing Multidrug-Resistant Non-Small-Cell Lung Cancer Cells to Chemotherapeutic Drugs” (J Nat Prod, 2021).

Key:
NCI/ADR-RES [1] = assay: Chemo-sensitizing activity against ABCB1-overexpressing human NCI/ADR-RES cells assessed as reversal fold at 2 uM measured after 72 hrs in presence of paclitaxel by CCK8 assay relative to control; format: functional
HEK293 [2] = assay: Chemo-sensitizing activity against human HEK293 cells assessed as reversal fold at 1 uM measured after 72 hrs in presence of vincristine by CCK8 assay relative to control; format: functional
NCI-H460 [3] = assay: Chemo-sensitizing activity against mitoxantrone-selected ABCG2-overexpressing human NCI-H460/MX20 cells assessed as reversal fold at 1 uM measured after 72 hrs in presence of topotecan by CCK8 assay relative to control; format: functional
NCI/ADR-RES [4] = assay: Chemo-sensitizing activity against ABCB1-overexpressing human NCI/ADR-RES cells assessed as reversal fold at 1 uM measured after 72 hrs in presence of paclitaxel by CCK8 assay relative to control; format: functional
NCI-H460 [5] = assay: Chemo-sensitizing activity against mitoxantrone-selected ABCG2-overexpressing human NCI-H460/MX20 cells assessed as reversal fold at 5 uM measured after 72 hrs in presence of SN-38 by CCK8 assay relative to control; format: functional
HEK293 [6] = assay: Cytotoxicity against ABCG2-overexpressing human HEK293/482R cells assessed as reduction in cell viability measured after 72 hrs by CCK8 assay; format: ADME, cell-based; details: HEK293, 72 h
[7] = Cytotoxicity against mitoxantrone-selected ABCG2-overexpressing human NCI-H460/MX20 cells assessed as cell viability at 1 to 5 uM measured after 72 hrs by CCK8 assay; format: ADME, cell-based; details: dose 1-5 µM, read-out: Activity
KB-V1 [8] = assay: Chemo-sensitizing activity against ABCB1-overexpressing human KB-V1 cells assessed as reversal fold at 5 uM measured after 72 hrs in presence of paclitaxel by CCK8 assay relative to control; format: functional
HEK293 [9] = assay: Chemo-sensitizing activity against ABCG2-overexpressing human HEK293/482R cells assessed as reversal fold at 1 uM measured after 72 hrs in presence of mitoxatrone by CCK8 assay relative to control; format: functional
NCI-H460 [10] = assay: Chemo-sensitizing activity against human NCI-H460 cells assessed as reversal fold at 2 uM measured after 72 hrs in presence of topotecan by CCK8 assay relative to control; format: functional
ABCG2 = target: T1, ABCG2 (Homo sapiens, UniProt Q9UNQ0); assay: Inhibition of ABCG2 in becatecarin-selected ABCG2-overexpressing human A549/Bec150 cells assessed as increase in intracellular mitoxantrone accumulation at 20 uM incubated for 1 hr in presence of mitoxantrone by flow cytometry; format: cell-based; details: probe mitoxantrone
T1 sequence (Q9UNQ0 whole entry): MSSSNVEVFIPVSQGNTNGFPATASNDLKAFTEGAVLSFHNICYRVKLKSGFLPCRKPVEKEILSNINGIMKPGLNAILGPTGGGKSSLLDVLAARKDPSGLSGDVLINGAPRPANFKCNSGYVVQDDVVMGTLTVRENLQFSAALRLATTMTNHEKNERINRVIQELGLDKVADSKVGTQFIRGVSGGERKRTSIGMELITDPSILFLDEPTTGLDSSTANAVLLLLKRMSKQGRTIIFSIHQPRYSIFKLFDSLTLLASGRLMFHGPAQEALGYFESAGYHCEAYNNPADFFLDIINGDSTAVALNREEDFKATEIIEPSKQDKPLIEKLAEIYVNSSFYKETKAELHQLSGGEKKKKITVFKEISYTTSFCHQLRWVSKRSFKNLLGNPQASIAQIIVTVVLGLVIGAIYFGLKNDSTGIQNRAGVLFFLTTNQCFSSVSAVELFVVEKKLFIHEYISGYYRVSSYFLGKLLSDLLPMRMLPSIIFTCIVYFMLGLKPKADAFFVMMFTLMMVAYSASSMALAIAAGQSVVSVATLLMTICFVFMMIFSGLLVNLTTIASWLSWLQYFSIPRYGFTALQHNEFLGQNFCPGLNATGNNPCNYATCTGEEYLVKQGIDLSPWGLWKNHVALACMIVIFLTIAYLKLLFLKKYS

HEK293 [11] = assay: Chemo-sensitizing activity against human HEK293 cells assessed as reversal fold at 1 uM measured after 72 hrs in presence of paclitaxel by CCK8 assay relative to control; format: functional
HEK293 [12] = assay: Chemo-sensitizing activity against ABCB1-overexpressing human HEK293/MDR19 cells assessed as reversal fold at 1 uM measured after 72 hrs in presence of paclitaxel by CCK8 assay relative to control; format: functional
NCI-H460 [13] = assay: Chemo-sensitizing activity against human NCI-H460 cells assessed as reversal fold at 1 uM measured after 72 hrs in presence of SN-38 by CCK8 assay relative to control; format: functional
HEK293 [14] = assay: Chemo-sensitizing activity against human HEK293 cells assessed as reversal fold at 5 uM measured after 72 hrs in presence of SN-38 by CCK8 assay relative to control; format: functional
KB-V1 [15] = assay: Chemo-sensitizing activity against ABCB1-overexpressing human KB-V1 cells assessed as reversal fold at 2 uM measured after 72 hrs in presence of vincristine by CCK8 assay relative to control; format: functional
KB-V1 [16] = assay: Chemo-sensitizing activity against ABCB1-oveexpressing human KB-V1 cells assessed as reversal fold at 2 uM measured after 72 hrs in presence of colchicine by CCK8 assay relative to control; format: functional
KB 3-1 [17] = assay: Chemo-sensitizing activity against human KB 3-1 cells assessed as reversal fold at 5 uM measured after 72 hrs in presence of paclitaxel by CCK8 assay relative to control; format: functional
HEK293 [18] = assay: Chemo-sensitizing activity against ABCG2-overexpressing human HEK293/482R cells assessed as reversal fold at 5 uM measured after 72 hrs in presence of SN-38 by CCK8 assay relative to control; format: functional
HEK293 [19] = assay: Chemo-sensitizing activity against ABCG2-overexpressing human HEK293 cells assessed as reversal fold at 2 uM measured after 72 hrs in presence of topotecan by CCK8 assay relative to control; format: functional
HEK293 [20] = assay: Chemo-sensitizing activity against human HEK293 cells assessed as reversal fold at 2 uM measured after 72 hrs in presence of paclitaxel by CCK8 assay relative to control; format: functional
HEK293 [21] = assay: Chemo-sensitizing activity against ABCG2-overexpressing human HEK293/482R cells assessed as reversal fold at 5 uM measured after 72 hrs in presence of mitoxatrone by CCK8 assay relative to control; format: functional
KB 3-1 [22] = assay: Chemo-sensitizing activity against human KB 3-1 cells assessed as reversal fold at 5 uM measured after 72 hrs in presence of colchicine by CCK8 assay relative to control; format: functional
NCI-H460 [23] = assay: Chemo-sensitizing activity against mitoxantrone-selected ABCG2-overexpressing human NCI-H460/MX20 cells assessed as reversal fold at 1 uM measured after 72 hrs in presence of SN-38 by CCK8 assay relative to control; format: functional
NCI-H460 [24] = assay: Chemo-sensitizing activity against human NCI-H460 cells assessed as reversal fold at 5 uM measured after 72 hrs in presence of mitoxantrone by CCK8 assay relative to control; format: functional
A549 = assay: Chemo-sensitizing activity against becatecarin-selected ABCG2-overexpressing human A549/Bec150 cells assessed as reversal fold at 5 uM measured after 72 hrs in presence of topotecan by CCK8 assay relative to control; format: functional

C=C(C)[C@H](CC=C(C)C)Cc1c(O)cc(O)c2c1O[C@H](c1ccc(O)cc1O)CC2=O [SOPHORAFLAVANONE G]
fold change (FC) (NCI/ADR-RES [1]): 1.1 | fold change (FC) (HEK293 [2]): 1 | fold change (FC) (NCI-H460 [3]): 4.1 | fold change (FC) (NCI/ADR-RES [4]): 1 | fold change (FC) (NCI-H460 [5]): 10.1 | IC50 (HEK293 [6]): 49.7 µM | viability at 72 h, 5 µM [7]: > 90% | fold change (FC) (KB-V1 [8]): 1.6 | fold change (FC) (HEK293 [9]): 2.6 | fold change (FC) (NCI-H460 [10]): 2.1 | inhibition at 1 h, 20 µM (ABCG2): 100% | fold change (FC) (HEK293 [11]): 1.1 | fold change (FC) (HEK293 [12]): 0.8 | fold change (FC) (NCI-H460 [13]): 1.3 | fold change (FC) (HEK293 [14]): 1 | fold change (FC) (KB-V1 [15]): 1.1 | fold change (FC) (KB-V1 [16]): 0.9 | fold change (FC) (KB 3-1 [17]): 1.1 | fold change (FC) (HEK293 [18]): 6.4 | fold change (FC) (HEK293 [19]): 2.3 | fold change (FC) (HEK293 [20]): 1 | fold change (FC) (HEK293 [21]): 5.6 | fold change (FC) (KB 3-1 [22]): 1.1 | fold change (FC) (NCI-H460 [23]): 2.6 | fold change (FC) (NCI-H460 [24]): 2.2 | fold change (FC) (A549): 2.9
